Assay results: PubChem BioAssay AID1963865 (Molecular Pharmacology Branch, DTP, NCI, 2024)

Test system: KRAS PDC multicell spheroid viability
Experiment: Anticancer human tumor 825966-067-R-J1-PDC patient-derived colon carcinoma cell line growth inhibition [KRAS2]
Details: for IC50: curve of first compound; for viability, T/C: stronger effect = lower value
Procedure, shortened: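 Combination screen of spheroid viability in tumor-cell co-cultures with endothelial (HUVEC) and mesenchymal stem cell stroma. Each agent was tested in half-log dilutions, topping at clinical Cmax or at 10 microM without a known Cmax.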

[1] = second compound 0.1 µM, first compound 0.0316 µM
[2] = second compound 0.1 µM, first compound 0.1 µM
[3] = second compound 0.1 µM, first compound 0.316 µM
[4] = second compound 0.1 µM, first compound 1 µM
[5] = second compound 0.1 µM, first compound 3.16 µM
[6] = second compound 0.1 µM, first compound 10 µM
[7] = second compound 0.316 µM, first compound 0.0316 µM
[8] = second compound 0.316 µM, first compound 0.1 µM
[9] = second compound 0.316 µM, first compound 0.316 µM
[10] = second compound 0.316 µM, first compound 1 µM
[11] = second compound 0.316 µM, first compound 3.16 µM
[12] = second compound 0.316 µM, first compound 10 µM
[13] = second compound 1 µM, first compound 0.0316 µM
[14] = second compound 1 µM, first compound 0.1 µM
[15] = second compound 1 µM, first compound 0.316 µM
[16] = second compound 1 µM, first compound 1 µM
[17] = second compound 1 µM, first compound 3.16 µM
[18] = second compound 1 µM, first compound 10 µM
[19] = second compound 3.16 µM, first compound 0.0316 µM
[20] = second compound 3.16 µM, first compound 0.1 µM
[21] = second compound 3.16 µM, first compound 0.316 µM
[22] = second compound 3.16 µM, first compound 1 µM
[23] = second compound 3.16 µM, first compound 3.16 µM
[24] = second compound 3.16 µM, first compound 10 µM
[25] = second compound 10 µM, first compound 0.0316 µM
[26] = second compound 10 µM, first compound 0.1 µM
[27] = second compound 10 µM, first compound 0.316 µM
[28] = second compound 10 µM, first compound 1 µM
[29] = second compound 10 µM, first compound 3.16 µM
[30] = second compound 10 µM, first compound 10 µM
[31] = second compound 0.1 µM, first compound 0.01 µM
[32] = second compound 0.316 µM, first compound 0.01 µM
[33] = second compound 1 µM, first compound 0.01 µM
[34] = second compound 3.16 µM, first compound 0.01 µM
[35] = second compound 10 µM, first compound 0.01 µM
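Also: spheroids exposed to compounds for 7 days.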
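For viability, T/C in this document: 100% = DMSO vehicle control viability.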

| Structure (SMILES) | IC50 (second compound 0.1 µM) | IC50 (second compound 0.316 µM) | IC50 (second compound 1 µM) | IC50 (second compound 3.16 µM) | IC50 (second compound 10 µM) | viability, T/C [1] | viability, T/C [2] | viability, T/C [3] | viability, T/C [4] | viability, T/C [7] | viability, T/C [8] | viability, T/C [9] | viability, T/C [10] | viability, T/C [13] | viability, T/C [14] | viability, T/C [15] | viability, T/C [16] | viability, T/C [19] | viability, T/C [20] | viability, T/C [21] | further results |
| --- | --- | --- | --- | --- | --- | --- | --- | --- | --- | --- | --- | --- | --- | --- | --- | --- | --- | --- | --- | --- | --- |
| CC(C)NCC(C(=O)N1CCN(c2ncnc3c2C(C)CC3O)CC1)c1ccc(Cl)cc1 (stereo not given) + CNCc1ccccc1-c1csc(C(C)Nc2nc(C)nc3cc(OC)c(OC)cc23)c1 | 1880 nM | 1780 nM | 787 nM | 32.2 nM | < 31.6 nM | 84.8% | 84.4% | 89.6% | 85.3% | 79% | 110% | 119% | 69.9% | 81.6% | 84.8% | 97.9% | 40% | 50.6% | 21.1% | 1.24% | viability, T/C [5]: 20.8%; viability, T/C [6]: 7.87%; viability, T/C [11]: 29.2%; viability, T/C [12]: 6.85%; viability, T/C [17]: 14.8%; viability, T/C [18]: 3.31%; viability, T/C [22]: 0.74%; viability, T/C [23]: 0.68%; viability, T/C [24]: 1.98%; viability, T/C [25]: 1.91%; viability, T/C [26]: 1.5%; viability, T/C [27]: 0.93%; viability, T/C [28]: 0.3%; viability, T/C [29]: 0.36%; viability, T/C [30]: 0.91% |
| CC1COCCN1c1cc(-c2ccnn2C)c2ccnc(-c3ccn[nH]3)c2n1 (stereo not given) + CNCc1ccccc1-c1csc(C(C)Nc2nc(C)nc3cc(OC)c(OC)cc23)c1 | 244 nM | 278 nM | 122 nM | < 10 nM | < 10 nM | 129% | 89.2% | 34.4% | 44.4% | 131% | 75.8% | 54% | 49.5% | 91.5% | 56.8% | 18.3% | 14.2% | 8.68% | 1.56% | 2.53% | viability, T/C [31]: 111%; viability, T/C [5]: 37.3%; viability, T/C [32]: 132%; viability, T/C [11]: 30.3%; viability, T/C [33]: 104%; viability, T/C [17]: 2.54%; viability, T/C [34]: 29.4%; viability, T/C [22]: 0.56%; viability, T/C [23]: 0.39%; viability, T/C [35]: 0.18%; viability, T/C [25]: 0.15%; viability, T/C [26]: 0.12%; viability, T/C [27]: 0.52%; viability, T/C [28]: 0.12%; viability, T/C [29]: 0.19% |
| CCN1CCN(Cc2ccc(Nc3ncc(F)c(-c4cc(F)c5nc(C)n(C(C)C)c5c4)n3)nc2)CC1 + CNCc1ccccc1-c1csc(C(C)Nc2nc(C)nc3cc(OC)c(OC)cc23)c1 | > 1000 nM | > 1000 nM | 705 nM | 68 nM | < 3.16 nM | 126% | 137% | 174% | 123% | 115% | 129% | 176% | 78% | 154% | 173% | 147% | 10.1% | 88.5% | 30.9% | 0.29% | viability, T/C (second compound 0.1 µM, first compound 0.00316 µM): 98.2%; viability, T/C [31]: 99.1%; viability, T/C (second compound 0.316 µM, first compound 0.00316 µM): 101%; viability, T/C [32]: 128%; viability, T/C (second compound 1 µM, first compound 0.00316 µM): 111%; viability, T/C [33]: 122%; viability, T/C (second compound 3.16 µM, first compound 0.00316 µM): 110%; viability, T/C [34]: 127%; viability, T/C [22]: 0.27%; viability, T/C (second compound 10 µM, first compound 0.00316 µM): 0.26%; viability, T/C [35]: 0.29%; viability, T/C [25]: 0.22%; viability, T/C [26]: 0.18%; viability, T/C [27]: 0.15%; viability, T/C [28]: 0.22% |
| CCNC(=O)CC1N=C(c2ccc(Cl)cc2)c2cc(OC)ccc2-n2c(C)nnc21 (stereo not given) + CNCc1ccccc1-c1csc(C(C)Nc2nc(C)nc3cc(OC)c(OC)cc23)c1 | > 10000 nM | > 10000 nM | > 10000 nM | < 31.6 nM | < 31.6 nM | 90.3% | 113% | 118% | 91.4% | 112% | 113% | 120% | 90.9% | 117% | 113% | 122% | 111% | 27.8% | 0.64% | 0.53% | viability, T/C [5]: 82.2%; viability, T/C [6]: 65%; viability, T/C [11]: 83.1%; viability, T/C [12]: 71.5%; viability, T/C [17]: 96.6%; viability, T/C [18]: 51.1%; viability, T/C [22]: 0.19%; viability, T/C [23]: 2.33%; viability, T/C [24]: 0.59%; viability, T/C [25]: 0.15%; viability, T/C [26]: 0.15%; viability, T/C [27]: 0.17%; viability, T/C [28]: 0.16%; viability, T/C [29]: 0.14%; viability, T/C [30]: 0.37% |
| Cn1nccc1Nc1nccc(-c2cc3c(s2)C(C)(C)N(CCN2CCOCC2)C3=O)n1 + CNCc1ccccc1-c1csc(C(C)Nc2nc(C)nc3cc(OC)c(OC)cc23)c1 | > 10000 nM | > 10000 nM | 5040 nM | 53.1 nM | < 31.6 nM | 108% | 96.9% | 123% | 125% | 94.8% | 103% | 137% | 75.6% | 118% | 137% | 134% | 98.1% | 78% | 13.4% | 12.4% | viability, T/C [5]: 96.1%; viability, T/C [6]: 82.3%; viability, T/C [11]: 82.2%; viability, T/C [12]: 75.8%; viability, T/C [17]: 66.8%; viability, T/C [18]: 29%; viability, T/C [22]: 0.56%; viability, T/C [23]: 0.23%; viability, T/C [24]: 0.47%; viability, T/C [25]: 0.39%; viability, T/C [26]: 0.21%; viability, T/C [27]: 0.16%; viability, T/C [28]: 0.16%; viability, T/C [29]: 2.28%; viability, T/C [30]: 0.24% |
